According to US20160053226A1, “Method and Medium for Amplifying Neural Precursor Cells” (INSERM (INSTITUT NATIONAL DE LA SANTÉ ET DE LA RECHERCHE …, priority 2013, published 2016):

Experiments:
neural precursors [1] = test: Terminal differentiation into neurons of amplified neural precursors; format: cell-based, human; details: amplified for 5 passages, compared to EFB medium
Source text: Terminal differentiation into neurons was induced by plating neural precursors on poly-ornithin/laminin at a density of 50,000 cells/cm^2 in N2B27 medium. Medium was changed every 4 days.
We next measured the ability of neural precursors amplified using the PKA inhibitor HA1004 for 5 passages to produce neurons. This was compared to the production of neurons obtained from precursor amplified using EFB medium as a reference.

neural precursors [2] = test: Kinase inhibitor library screening for sustaining neural precursor proliferation (Ki67, EdU incorporation); format: cell-based, human; details: SA001-derived neural precursors, N2B27 without growth factors, day 7, compared to DMSO-treated cells
Description: Cells were fixed with 4% PFA for 15 min at 4° C. then permeabilized using a PBS/0.3% Triton X100 solution, 10 min at RT. Incubation with primary antibodies was performed. AlexaFluor secondary antibodies and DAPI counterstaining were applied for 1 h at room temperature. Detection was performed using a Zeiss Inverted microscope or the Arrayscan automated microscope.
A homogeneous population of neural precursors was produced after conversion of SA001 PSC line into neural cells and further amplification using EFB medium until passage 8. The stable neural precursors were seeded in 384 well-plates using Agilent BRAVO automate in N2B27 without growth factors. Six hours post-seeding, cells were treated with Enzo Life Sciences Kinase inhibitors library (BML-2832), a collection of 80 different kinase inhibitors. Another treatment was performed at day 4 and the percentage of proliferative precursors was quantified at day 7 using Ki67 and EdU incorporation. SOX2 was used as a neural marker.

SMILES	ability of amplified neural precursors to produce neurons (neural precursors [1])	neural precursor self-renewal (percentage of Ki67 positive cells) (neural precursors [2])
Cl.N=C(N)NCCNS(=O)(=O)c1cccc2cnccc12 [HA1004, N-(2′-Guanidinoethyl)-5-isoquinolinesulfonamide.HCl]	did not impact on their ability to produce neurons	–
NCCNS(=O)(=O)c1cccc2cnccc12 [H9]	–	sustained neural precursor self-renewal
CNCCNS(=O)(=O)c1cccc2cnccc12 [H8]	–	sustained neural precursor self-renewal
O=S(=O)(c1cccc2cnccc12)N1CCCNCC1 [HA1077]	–	sustained neural precursor self-renewal
CC1CNCCN1S(=O)(=O)c1cccc2cnccc12 (centres unmarked) [H7]	–	sustained neural precursor self-renewal
